Assay [1] deals with Tetranychus urticae. Kind of assay: Acaricidal activity against Tetranychus urticae (two-spotted spider mite) in compound treated kidney bean leaf assessed as mortality of egg at 1000 ppm at 24 degC measured after 1 week. Type of assay: functional. The conditions noted are these: 168 h.
Assay [2] has as its system Tetranychus urticae. The experiment in a line: Acaricidal activity against Tetranychus urticae (two-spotted spider mite) in compound treated kidney bean leaf assessed as larvicidal activity. Type of assay: functional.
For the next assay, the system named is Plutella xylostella. The experiment in a line: Insecticidal activity against Plutella xylostella (diamondback moth) in compound treated radish leaf assessed as mortality at 500 ppm. Type of assay: functional.
For another assay, the system named is Nephotettix cincticeps. Kind of assay: Insecticidal activity against Nephotettix cincticeps (green rice leafhopper) in compound treated rice seedlings assessed as mortality at 500 ppm. Type of assay: functional.
The next assay concerns Myzus persicae. The experiment in a line: Insecticidal activity against Myzus persicae (green peach aphid) in compound treated radish leaf assessed as mortality at 500 ppm. Type of assay: functional.
The test system of another assay is Chilo suppressalis. Kind of assay: Insecticidal activity against Chilo suppressalis (rice stem borer) larvae assessed as inhibition of incorporation of N-acetyl-[1-14C]glucosamine. Type of assay: functional, organism-based.

Values after ≈ are worked out from the molar mass of the structure shown.

By mortality is commonly meant the share of the test organisms that died. Broadly, the LC50 is the concentration lethal to half of the exposed cells or organisms. On to `Fc1ccccc1C1=NC(c2ccccc2)CO1` (stereo unspecified), for which the mortality at 1000 ppm in the assay on Tetranychus urticae [1] amounted to 10%. Also, the LC50 in the assay on Tetranychus urticae [2] turned out to be 10 µg/mL (≈ 41.4 µM). Moreover, the figures for the mortality at 500 ppm with Plutella xylostella, in the assay on Nephotettix cincticeps and in the assay with Myzus persicae were 35%, 10% and 0%, respectively.
Regarding `Clc1ccc(C2=NC(c3ccccc3)CO2)cc1` (stereo unspecified), in the assay on Tetranychus urticae [1], the mortality at 1000 ppm is 0%. Also, the LC50 in the assay with Tetranychus urticae [2] came to 100 µg/mL (≈ 388 µM). In addition, the mortality at 500 ppm worked out at 60% in the assay with Plutella xylostella, 0% in the assay on Nephotettix cincticeps and 0% in the assay with Myzus persicae.
For the compound `O=[N+]([O-])c1ccccc1C1=NC(c2ccccc2)CO1` (stereo unspecified), the mortality at 1000 ppm with Tetranychus urticae [1] amounted to 10%. For the same compound, in the assay with Tetranychus urticae [2], the LC50 was 100 µg/mL (≈ 373 µM). Further, the mortality at 500 ppm in the assay on Plutella xylostella, with Nephotettix cincticeps and in the assay on Myzus persicae was 0% each time.
Regarding `Fc1cccc(F)c1-c1nc(-c2ccccc2)co1`, the mortality at 1000 ppm with Tetranychus urticae [1] turned out to be 0%. Also, the LC50 in the assay with Tetranychus urticae [2] came out at 100 µg/mL (≈ 389 µM). Moreover, the mortality at 500 ppm amounted to 0% with Plutella xylostella, 10% with Nephotettix cincticeps and 0% in the assay with Myzus persicae.
Broadly, the EC50 is the concentration at which the effect is half-maximal. For the compound `O=C(NC(=O)c1c(F)cccc1F)Nc1ccc(Cl)cc1` [DIFLUBENZURON], the EC50 in the assay on Chilo suppressalis was determined as 20 nM.
Take `Ic1ccccc1C1=NC(c2ccccc2)CO1` (stereo unspecified): in the assay on Tetranychus urticae [1], the mortality at 1000 ppm was 10%. The LC50 with Tetranychus urticae [2] is 1 µg/mL (≈ 2.86 µM). Besides, the mortality at 500 ppm in the assay with Plutella xylostella came out at 35%; with Nephotettix cincticeps, 0%; in the assay with Myzus persicae, 0%.
Consider `CC1(c2ccccc2)COC(c2c(F)cccc2F)=N1` (stereo unspecified), for which the mortality at 1000 ppm with Tetranychus urticae [1] was found to be 0%. For the same compound, in the assay on Tetranychus urticae [2], the LC50 was determined as 100 µg/mL (≈ 366 µM). For the same compound, the mortality at 500 ppm in the assay with Plutella xylostella, with Nephotettix cincticeps and in the assay with Myzus persicae was 0% in each case.
As for `COc1cccc(C2=NC(c3ccccc3)CO2)c1` (stereo unspecified), the mortality at 1000 ppm with Tetranychus urticae [1] turned out to be 0%. Further, the LC50 in the assay on Tetranychus urticae [2] was more than 1000 µg/mL. The mortality at 500 ppm in the assay with Plutella xylostella, with Nephotettix cincticeps and in the assay on Myzus persicae was 0% each time.
In the case of `COc1ccccc1C1=NC(c2ccccc2)CO1` (stereo unspecified), the mortality at 1000 ppm in the assay with Tetranychus urticae [1] worked out at 0%. Also, the LC50 in the assay on Tetranychus urticae [2] worked out at 10 µg/mL (≈ 39.5 µM). Further, the mortality at 500 ppm was determined as 10% with Plutella xylostella, 10% with Nephotettix cincticeps and 0% in the assay on Myzus persicae.
Regarding `Clc1cccc(C2=NC(c3ccccc3)CO2)c1Cl` (stereo unspecified), the mortality at 1000 ppm in the assay on Tetranychus urticae [1] turned out to be 0%. Also, the LC50 in the assay on Tetranychus urticae [2] is 10 µg/mL (≈ 34.2 µM). For the same compound, the mortality at 500 ppm with Plutella xylostella, with Nephotettix cincticeps and in the assay on Myzus persicae was 0% each time.
`Fc1cccc(F)c1C1=NCC(c2ccccc2)O1` (stereo unspecified): the mortality at 1000 ppm with Tetranychus urticae [1] is 0%. In the assay with Tetranychus urticae [2], the LC50 stood at 1 µg/mL (≈ 3.86 µM). Moreover, the figures for the mortality at 500 ppm in the assay on Plutella xylostella, with Nephotettix cincticeps and with Myzus persicae were 35%, 10% and 85%, respectively.
For `Fc1cccc(F)c1C1=NCC(c2ccccc2)S1` (stereo unspecified) the same measures were 0%, 100 µg/mL (≈ 363 µM), 0%, 0% and 0%.
For `Clc1ccccc1C1=NC(c2ccccc2)CO1` (stereo unspecified) the same measures were 10%, 1 µg/mL (≈ 3.88 µM), 35%, 10% and 0%.
For `Fc1cccc(F)c1-c1ncc(-c2ccccc2)o1` the same measures were 0%, 100 µg/mL (≈ 389 µM), 0%, 0% and 0%.
Regarding `Brc1ccccc1C1=NC(c2ccccc2)CO1` (stereo unspecified), in the assay on Tetranychus urticae [1], the mortality at 1000 ppm turned out to be 10%. The LC50 with Tetranychus urticae [2] came out at 0.1 µg/mL (≈ 0.331 µM). Moreover, the results for the mortality at 500 ppm in the assay with Plutella xylostella, with Nephotettix cincticeps and in the assay on Myzus persicae were 60%, 0% and 0%, respectively.
Take `Fc1cccc(F)c1C1=NC(c2ccccc2)CO1` (stereo unspecified): in the assay with Tetranychus urticae [1], the mortality at 1000 ppm was 0%. The LC50 with Tetranychus urticae [2] came out at 1 µg/mL (≈ 3.86 µM). Further, the mortality at 500 ppm was 0% with Plutella xylostella, 35% in the assay with Nephotettix cincticeps and 100% in the assay on Myzus persicae.
On to `c1ccc(Oc2ccccc2C2=NC(c3ccccc3)CO2)cc1` (stereo unspecified), for which the mortality at 1000 ppm with Tetranychus urticae [1] came to 0%. Further, the LC50 with Tetranychus urticae [2] was determined as 100 µg/mL (≈ 317 µM). Besides, the mortality at 500 ppm with Plutella xylostella, with Nephotettix cincticeps and in the assay with Myzus persicae was 0% each time.
For `Clc1cccc(C2=NC(c3ccccc3)CO2)c1` (stereo unspecified), the mortality at 1000 ppm in the assay with Tetranychus urticae [1] came to 10%. Besides, in the assay on Tetranychus urticae [2], the LC50 amounted to 100 µg/mL (≈ 388 µM). For the same compound, the results for the mortality at 500 ppm in the assay with Plutella xylostella, in the assay on Nephotettix cincticeps and in the assay with Myzus persicae were 60%, 0% and 0%, respectively.
In the case of `Cc1cccc(C2=NC(c3ccccc3)CO2)c1` (stereo unspecified), the mortality at 1000 ppm in the assay on Tetranychus urticae [1] turned out to be 0%. For the same compound, in the assay on Tetranychus urticae [2], the LC50 is more than 1000 µg/mL. The figures for the mortality at 500 ppm in the assay with Plutella xylostella, in the assay on Nephotettix cincticeps and in the assay on Myzus persicae were 0%, 10% and 0%, respectively.
Consider `Fc1cccc(F)c1C1=NC(c2ccccc2)CS1` (stereo unspecified), for which the mortality at 1000 ppm in the assay on Tetranychus urticae [1] was 0%. Further, the LC50 with Tetranychus urticae [2] was 10 µg/mL (≈ 36.3 µM). In addition, the mortality at 500 ppm with Plutella xylostella, in the assay on Nephotettix cincticeps and with Myzus persicae was 0% throughout.
On to `CCOc1ccccc1C1=NC(c2ccccc2)CO1` (stereo unspecified), for which the mortality at 1000 ppm in the assay with Tetranychus urticae [1] was 0%. Further, the LC50 in the assay with Tetranychus urticae [2] is more than 1000 µg/mL. The mortality at 500 ppm in the assay on Plutella xylostella, with Nephotettix cincticeps and in the assay on Myzus persicae was 0% each time.
As to `CCSc1ccccc1C1=NC(c2ccccc2)CO1` (stereo unspecified), the mortality at 1000 ppm in the assay with Tetranychus urticae [1] amounted to 10%. In the assay with Tetranychus urticae [2], the LC50 is 100 µg/mL (≈ 353 µM). Moreover, the mortality at 500 ppm in the assay on Plutella xylostella was found to be 10%; in the assay with Nephotettix cincticeps, 10%; in the assay on Myzus persicae it was 0%.
For `Clc1ccc(C2=NC(c3ccccc3)CO2)c(Cl)c1` (stereo unspecified), the mortality at 1000 ppm in the assay on Tetranychus urticae [1] was 10%. In the assay on Tetranychus urticae [2], the LC50 was determined as 10 µg/mL (≈ 34.2 µM). The mortality at 500 ppm stood at 10% in the assay with Plutella xylostella, 0% in the assay with Nephotettix cincticeps and 0% with Myzus persicae.
`Fc1cccc(Cl)c1C1=NC(c2ccccc2)CO1` (stereo unspecified): in the assay with Tetranychus urticae [1], the mortality at 1000 ppm was found to be 0%. Also, in the assay with Tetranychus urticae [2], the LC50 came to 0.01 µg/mL (≈ 0.0363 µM). In addition, the mortality at 500 ppm with Plutella xylostella came to 0%; with Nephotettix cincticeps, 35%; in the assay with Myzus persicae, 10%.
Consider `FC(F)(F)c1ccccc1C1=NC(c2ccccc2)CO1` (stereo unspecified), for which, in the assay with Tetranychus urticae [1], the mortality at 1000 ppm was determined as 0%. Further, in the assay with Tetranychus urticae [2], the LC50 came to 100 µg/mL (≈ 343 µM). The mortality at 500 ppm in the assay with Plutella xylostella came out at 35%; with Nephotettix cincticeps, 0%; in the assay with Myzus persicae it was 10%.
For `Cc1ccc(C2=NC(c3ccccc3)CO2)cc1` (stereo unspecified), the mortality at 1000 ppm in the assay on Tetranychus urticae [1] came to 0%. Further, the LC50 in the assay on Tetranychus urticae [2] was more than 1000 µg/mL. Also, the mortality at 500 ppm with Plutella xylostella, in the assay with Nephotettix cincticeps and in the assay on Myzus persicae was 0% throughout.
With `Clc1cccc(Cl)c1C1=NC(c2ccccc2)CO1` (stereo unspecified), the mortality at 1000 ppm with Tetranychus urticae [1] turned out to be 0%. The LC50 in the assay on Tetranychus urticae [2] worked out at 1 µg/mL (≈ 3.42 µM). Also, the mortality at 500 ppm is 10% in the assay with Plutella xylostella, 0% in the assay on Nephotettix cincticeps and 10% in the assay on Myzus persicae.
Take `Cc1ccccc1C1=NC(c2ccccc2)CO1` (stereo unspecified): the mortality at 1000 ppm with Tetranychus urticae [1] was 60%. The LC50 in the assay on Tetranychus urticae [2] amounted to 100 µg/mL (≈ 421 µM). Besides, the mortality at 500 ppm with Plutella xylostella is 60%; in the assay with Nephotettix cincticeps it was 0%; in the assay with Myzus persicae it was 60%.
Regarding `COc1ccc(C2=NC(c3ccccc3)CO2)cc1` (stereo unspecified), the mortality at 1000 ppm in the assay with Tetranychus urticae [1] stood at 0%. Also, the LC50 in the assay on Tetranychus urticae [2] turned out to be 100 µg/mL (≈ 395 µM). The mortality at 500 ppm turned out to be 0% with Plutella xylostella, 10% in the assay on Nephotettix cincticeps and 0% with Myzus persicae.

The values above are taken from ChEMBL document CHEMBL3045663, “Synthesis and Activity of Novel Acaricidal/Insecticidal 2, 4-Diphenyl-1, 3-oxazolines” (J Pestic Sci, 2002).
